These results are taken from patent US20180155344A1, “TRICYCLIC PIPERIDINE COMPOUNDS” (ACTELION PHARMACEUTICALS LTD, priority 2015, published 2018).

For orientation: IC50 means the concentration at which inhibition is half-maximal. Higher therefore signals weaker potency.

The structures appear in SMILES notation.

The test deals with T1, human TPH1 (Homo sapiens, UniProt P17752).
T1 sequence (P17752 1-444): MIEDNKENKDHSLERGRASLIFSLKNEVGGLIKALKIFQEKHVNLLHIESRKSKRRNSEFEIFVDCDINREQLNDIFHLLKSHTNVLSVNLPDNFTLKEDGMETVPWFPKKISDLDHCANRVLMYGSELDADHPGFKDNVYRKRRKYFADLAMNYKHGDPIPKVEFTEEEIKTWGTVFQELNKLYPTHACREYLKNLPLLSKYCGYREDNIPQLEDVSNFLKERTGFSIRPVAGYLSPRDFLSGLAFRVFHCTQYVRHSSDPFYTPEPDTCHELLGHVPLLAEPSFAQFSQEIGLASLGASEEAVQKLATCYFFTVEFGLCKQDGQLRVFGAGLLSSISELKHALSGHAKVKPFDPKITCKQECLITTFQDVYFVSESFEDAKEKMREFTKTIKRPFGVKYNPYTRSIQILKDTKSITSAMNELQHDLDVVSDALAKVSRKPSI
Kind of test: biochemical. The gist of the method:
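Inhibition is derived from 5-hydroxy-L-tryptophan fluorescence (540 nm emission, 300 nm excitation) after perchloric acid stop, relative to DMSO vehicle. Recombinant full-length human enzyme (40-80 nM) reacts with 40 μM tryptophan plus 100 μM methyltetrahydropterin, pH 7.6 Tris/DTT/catalase, 15° C, 60 min.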
The compound `O=C(COc1ccc2ccccc2c1)N1CCc2nc3cc(C(F)(F)F)ccn3c2C1c1cc(-c2ccccc2)on1` (stereo not shown) [Example 3.46.2, 2-(naphthalen-2-yloxy)-1-(1-(5-phenylisoxazol-3-yl)-7-(trifluoromethyl)-3,4-dihydroimidazo[1,2-a:5,4-c′]dipyridin-2(1H)-yl)ethan-1-one] registered an IC50 of 0.206 µM.
Next, `O=C(COc1ccc2ccccc2c1)N1CCc2nc3cc(C(F)(F)F)ccn3c2C1c1cc(-c2ccc(F)cc2)on1` (stereo not shown) [Example 3.47.1, 1-(1-(5-(4-fluorophenyl)isoxazol-3-yl)-7-(trifluoromethyl)-3,4-dihydroimidazo[1,2-a:5,4-c′]dipyridin-2(1H)-yl)-2-(naphthalen-2-yloxy)ethan-1-one]: 0.368 µM; `O=C(COc1ccc(CN2CCOCC2)cc1Cl)N1CCc2nc3cc(C(F)(F)F)ccn3c2C1c1cc(-c2ccc(F)cc2)on1` (stereo not shown) [Example 3.47.2, 2-(2-chloro-4-(morpholinomethyl)phenoxy)-1-(1-(5-(4-fluorophenyl)isoxazol-3-yl)-7-(trifluoromethyl)-3,4-dihydroimidazo[1,2-a:5,4-c′]dipyridin-2(1H)-yl)ethan-1-one]: 0.041 µM; `O=C(COc1ccc(CN2CCOCC2)cc1Cl)N1CCc2nc3cc(C(F)(F)F)ccn3c2C1c1ncn2ccccc12` (stereo not shown) [Example 3.48.1, 2-(2-chloro-4-(morpholinomethyl)phenoxy)-1-(1-(imidazo[1,5-a]pyridin-1-yl)-7-(trifluoromethyl)-3,4-dihydroimidazo[1,2-a:5,4-c′]dipyridin-2(1H)-yl)ethan-1-one]: 0.214 µM.
In turn, `O=C(COc1ccc2ccccc2c1)N1CCc2nc3cc(C(F)(F)F)ccn3c2C1c1cc2cccnc2s1` (stereo not shown) [Example 3.49.1, 2-(naphthalen-2-yloxy)-1-(1-(thieno[2,3-b]pyridin-2-yl)-7-(trifluoromethyl)-3,4-dihydroimidazo[1,2-a:5,4-c′]dipyridin-2(1H)-yl)ethan-1-one] came in with an IC50 of 0.047 µM. This IC50 is about 4.6-fold lower than that of the compound before.
`O=C(COc1ccc(CN2CCOCC2)cc1Cl)N1CCc2nc3cc(C(F)(F)F)ccn3c2C1c1cc2cccnc2s1` (stereo not shown) [Example 3.49.2, 2-(2-chloro-4-(morpholinomethyl)phenoxy)-1-(1-(thieno[2,3-b]pyridin-2-yl)-7-(trifluoromethyl)-3,4-dihydroimidazo[1,2-a:5,4-c′]dipyridin-2(1H)-yl)ethan-1-one] had a concentration for half-maximal inhibition (IC50) of 0.013 µM. This IC50 lies about 3.6-fold lower than the previous one.
For `Cc1ccc(C2c3c(nc4cc(C(F)(F)F)ccn34)CCN2C(=O)COc2ccc3ccccc3c2)nc1` (stereo not shown) [Example 3.50.1, 1-(1-(5-methylpyridin-2-yl)-7-(trifluoromethyl)-3,4-dihydroimidazo[1,2-a:5,4-c′]dipyridin-2(1H)-yl)-2-(naphthalen-2-yloxy)ethan-1-one] the value was 0.058 µM; for `Cc1ccc(C2c3c(nc4cc(C(F)(F)F)ccn34)CCN2C(=O)COc2ccc(CN3CCOCC3)cc2Cl)nc1` (stereo not shown) [Example 3.50.2, 2-(2-chloro-4-(morpholinomethyl)phenoxy)-1-(1-(5-methylpyridin-2-yl)-7-(trifluoromethyl)-3,4-dihydroimidazo[1,2-a:5,4-c′]dipyridin-2(1H)-yl)ethan-1-one], 0.1 µM; for `Cc1ccc(C2c3c(nc4cc(C(F)(F)F)ccn34)CCN2C(=O)COc2cc(-c3ccccc3)nn2C)nc1` (stereo not shown) [Example 3.50.3, 2-((1-methyl-3-phenyl-1H-pyrazol-5-yl)oxy)-1-(1-(5-methylpyridin-2-yl)-7-(trifluoromethyl)-3,4-dihydroimidazo[1,2-a:5,4-c′]dipyridin-2(1H)-yl)ethan-1-one], 0.468 µM.
The compound `Cc1noc(C)c1C1c2c(nc3cc(C(F)(F)F)ccn23)CCN1C(=O)COc1ccc2ccccc2c1` (stereo not shown) [Example 3.51.1, 1-(1-(3,5-dimethylisoxazol-4-yl)-7-(trifluoromethyl)-3,4-dihydroimidazo[1,2-a:5,4-c′]dipyridin-2(1H)-yl)-2-(naphthalen-2-yloxy)ethan-1-one] gave an IC50 of 0.087 µM. This IC50 lies about 5.4-fold lower than the previous one.
Next, `Cc1noc(C)c1C1c2c(nc3cc(C(F)(F)F)ccn23)CCN1C(=O)COc1ccc(CN2CCOCC2)cc1Cl` (stereo not shown) [Example 3.51.2, 2-(2-chloro-4-(morpholinomethyl)phenoxy)-1-(1-(3,5-dimethylisoxazol-4-yl)-7-(trifluoromethyl)-3,4-dihydroimidazo[1,2-a:5,4-c′]dipyridin-2(1H)-yl)ethan-1-one]: 0.217 µM; `COc1ccc(C2c3c(nc4cc(C(F)(F)F)ccn34)CCN2C(=O)COc2ccc3ccccc3c2)nc1` (stereo not shown) [Example 3.52.1, 1-(1-(5-methoxypyridin-2-yl)-7-(trifluoromethyl)-3,4-dihydroimidazo[1,2-a:5,4-c′]dipyridin-2(1H)-yl)-2-(naphthalen-2-yloxy)ethan-1-one]: 0.09 µM; `COc1ccc(C2c3c(nc4cc(C(F)(F)F)ccn34)CCN2C(=O)COc2ccc(CN3CCOCC3)cc2Cl)nc1` (stereo not shown) [Example 3.52.2, 2-(2-chloro-4-(morpholinomethyl)phenoxy)-1-(1-(5-methoxypyridin-2-yl)-7-(trifluoromethyl)-3,4-dihydroimidazo[1,2-a:5,4-c′]dipyridin-2(1H)-yl)ethan-1-one]: 0.074 µM.
Next, `Cc1ncc(C2c3c(nc4cc(C(F)(F)F)ccn34)CCN2C(=O)COc2ccc3ccccc3c2)cn1` (stereo not shown) [Example 3.53.1, 1-(1-(2-methylpyrimidin-5-yl)-7-(trifluoromethyl)-3,4-dihydroimidazo[1,2-a:5,4-c′]dipyridin-2(1H)-yl)-2-(naphthalen-2-yloxy)ethan-1-one]: 0.161 µM; `CCc1ncc(C2c3c(nc4cc(C(F)(F)F)ccn34)CCN2C(=O)COc2ccc3ccccc3c2)cn1` (stereo not shown) [Example 3.54.1, 1-(1-(2-ethylpyrimidin-5-yl)-7-(trifluoromethyl)-3,4-dihydroimidazo[1,2-a:5,4-c′]dipyridin-2(1H)-yl)-2-(naphthalen-2-yloxy)ethan-1-one]: 0.203 µM.
Next, `CCc1ncc(C2c3c(nc4cc(C(F)(F)F)ccn34)CCN2C(=O)COc2ccc(CN3CCOCC3)cc2Cl)cn1` (stereo not shown) [Example 3.54.2, 2-(2-chloro-4-(morpholinomethyl)phenoxy)-1-(1-(2-ethylpyrimidin-5-yl)-7-(trifluoromethyl)-3,4-dihydroimidazo[1,2-a:5,4-c′]dipyridin-2(1H)-yl)ethan-1-one]: 0.415 µM.
Regarding `COc1ncc(C2c3c(nc4cc(C(F)(F)F)ccn34)CCN2C(=O)COc2ccc3ccccc3c2)cn1` (stereo not shown) [Example 3.55.1, 1-(1-(2-methoxypyrimidin-5-yl)-7-(trifluoromethyl)-3,4-dihydroimidazo[1,2-a:5,4-c′]dipyridin-2(1H)-yl)-2-(naphthalen-2-yloxy)ethan-1-one], the half-inhibitory concentration (IC50) was 0.067 µM. This IC50 is about 6.2-fold lower than that of the compound before.
For `COc1ncc(C2c3c(nc4cc(C(F)(F)F)ccn34)CCN2C(=O)COc2ccc(CN3CCOCC3)cc2Cl)cn1` (stereo not shown) [Example 3.55.2, 2-(2-chloro-4-(morpholinomethyl)phenoxy)-1-(1-(2-methoxypyrimidin-5-yl)-7-(trifluoromethyl)-3,4-dihydroimidazo[1,2-a:5,4-c′]dipyridin-2(1H)-yl)ethan-1-one] the value was 0.266 µM; for `O=C(COc1ccc2ccccc2c1)N1CCc2nc3cc(C(F)(F)F)ccn3c2C1c1ccnc(Cl)c1` (stereo not shown) [Example 3.56.1, 1-(1-(2-chloropyridin-4-yl)-7-(trifluoromethyl)-3,4-dihydroimidazo[1,2-a:5,4-c′]dipyridin-2(1H)-yl)-2-(naphthalen-2-yloxy)ethan-1-one], 0.195 µM.
